The source of these data is ChEMBL document CHEMBL4130590, “Mtb PKNA/PKNB Dual Inhibition Provides Selectivity Advantages for Inhibitor Design To Minimize Host Kinase Interactions” (ACS Med Chem Lett, 2017).

Assay [1] deals with T1, Serine/threonine-protein kinase PknA (Mycobacterium tuberculosis (strain ATCC 25618 / H37Rv), UniProt P9WI83).
T1 sequence (P9WI83 whole entry): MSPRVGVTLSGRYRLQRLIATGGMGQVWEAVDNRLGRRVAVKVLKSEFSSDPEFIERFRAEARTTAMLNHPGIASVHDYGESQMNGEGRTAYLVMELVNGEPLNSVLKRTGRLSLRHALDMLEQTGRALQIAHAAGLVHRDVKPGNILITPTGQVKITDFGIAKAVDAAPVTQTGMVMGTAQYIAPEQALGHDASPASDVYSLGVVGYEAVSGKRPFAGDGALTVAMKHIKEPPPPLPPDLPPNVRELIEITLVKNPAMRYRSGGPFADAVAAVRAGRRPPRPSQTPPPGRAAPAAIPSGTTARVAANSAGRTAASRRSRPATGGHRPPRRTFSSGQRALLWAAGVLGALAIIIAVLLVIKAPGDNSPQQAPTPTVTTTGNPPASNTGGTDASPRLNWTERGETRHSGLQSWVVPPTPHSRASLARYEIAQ
The assay can be described thus: Inhibition of Mycobacterium tuberculosis PknA (M1 to A296 residues) expressed in Escherichia coli BL21 (DE3) pLysS cells using [T-33P]ATP as substrate after 120 mins in presence of GarA by liquid scintillation method.

In assay [2] the target is T2, Serine/threonine-protein kinase PknB (Mycobacterium tuberculosis, UniProt P9WI81).
T2 sequence (P9WI81 whole entry): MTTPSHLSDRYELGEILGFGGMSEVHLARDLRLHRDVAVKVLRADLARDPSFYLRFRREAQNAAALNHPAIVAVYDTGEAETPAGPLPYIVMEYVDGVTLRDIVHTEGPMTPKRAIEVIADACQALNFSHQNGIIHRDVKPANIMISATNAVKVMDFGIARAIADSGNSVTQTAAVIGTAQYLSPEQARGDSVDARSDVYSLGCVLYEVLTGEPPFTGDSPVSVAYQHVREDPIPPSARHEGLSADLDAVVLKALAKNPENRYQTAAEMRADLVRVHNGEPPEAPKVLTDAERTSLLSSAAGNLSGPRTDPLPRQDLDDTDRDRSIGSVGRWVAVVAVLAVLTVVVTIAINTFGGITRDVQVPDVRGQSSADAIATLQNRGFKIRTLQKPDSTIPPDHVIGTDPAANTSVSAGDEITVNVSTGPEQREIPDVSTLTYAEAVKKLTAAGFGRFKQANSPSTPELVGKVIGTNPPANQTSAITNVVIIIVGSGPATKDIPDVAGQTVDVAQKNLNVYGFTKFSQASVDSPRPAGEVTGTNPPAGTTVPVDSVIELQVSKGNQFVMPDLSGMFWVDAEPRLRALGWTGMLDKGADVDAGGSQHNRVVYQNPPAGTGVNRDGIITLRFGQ
The assay can be described thus: Inhibition of Mycobacterium tuberculosis PknB (M1 to G279 residues) expressed in Escherichia coli BL21 (DE3) cells using [T-33P]ATP as substrate after 50 mins in presence of GarA by liquid scintillation method.

The test system of assay [3] is Mycobacterium tuberculosis. As to the kind of experiment: Antibacterial activity against Mycobacterium tuberculosis H37Ra after […] by resazurin reduction assay. Format: functional.
Assay [4] addresses Glycogen synthase kinase-3 beta (Homo sapiens, UniProt P49841). As to the kind of experiment: Inhibition of recombinant GSK3beta (unknown origin) using HSSPHQ(Sp)EDEEE as substrate by pyruvate kinase-lactate dehydrogenase coupled assay.
A further assay addresses CDK2/Cyclin A2 (Homo sapiens, UniProt P24941). As to the kind of experiment: Inhibition of recombinant CDK2/cyclin A (unknown origin) using MAHHRSPRKRAKKK as substrate by pyruvate kinase-lactate dehydrogenase coupled assay. Format: protein-complex assay.
In assay [5] the target is Proto-oncogene tyrosine-protein kinase Src (Homo sapiens, UniProt P12931). As to the kind of experiment: Inhibition of recombinant SRC (unknown origin) using polyE4Y as substrate by pyruvate kinase-lactate dehydrogenase coupled assay.
Sequence of Proto-oncogene tyrosine-protein kinase Src (P12931 2-536 limits assumed): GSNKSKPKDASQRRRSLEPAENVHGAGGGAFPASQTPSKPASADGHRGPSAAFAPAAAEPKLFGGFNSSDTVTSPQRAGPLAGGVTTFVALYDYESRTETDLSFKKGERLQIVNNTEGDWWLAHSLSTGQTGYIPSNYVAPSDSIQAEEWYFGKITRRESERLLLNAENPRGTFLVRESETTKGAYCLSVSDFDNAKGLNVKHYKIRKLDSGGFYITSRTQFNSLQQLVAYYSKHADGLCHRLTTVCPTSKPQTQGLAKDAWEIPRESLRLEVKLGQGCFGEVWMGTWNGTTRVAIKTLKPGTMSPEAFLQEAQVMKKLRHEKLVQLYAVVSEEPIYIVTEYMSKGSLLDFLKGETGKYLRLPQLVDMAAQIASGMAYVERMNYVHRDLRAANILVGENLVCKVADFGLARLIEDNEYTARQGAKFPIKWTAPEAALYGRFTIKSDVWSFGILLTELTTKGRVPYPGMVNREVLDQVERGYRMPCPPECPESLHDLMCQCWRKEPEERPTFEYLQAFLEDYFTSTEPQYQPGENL
The nature of assay [6]: Selectivity ratio of Ki for recombinant CDK2/cyclin A (unknown origin) to Ki for Mycobacterium tuberculosis PknB (M1 to G279 residues).

≈ marks a conversion by molar mass, not a printed value. Where only a bound is given, the exact number is not on record here.

By Ki is commonly meant the equilibrium dissociation constant of an inhibitor or competing ligand from its target. What is called MIC90 is the lowest concentration that inhibits either 90% of growth or 90% of the strains tested, depending on the study. A lower MIC90 goes with greater potency.

Sequence of Glycogen synthase kinase-3 beta (P49841 whole entry): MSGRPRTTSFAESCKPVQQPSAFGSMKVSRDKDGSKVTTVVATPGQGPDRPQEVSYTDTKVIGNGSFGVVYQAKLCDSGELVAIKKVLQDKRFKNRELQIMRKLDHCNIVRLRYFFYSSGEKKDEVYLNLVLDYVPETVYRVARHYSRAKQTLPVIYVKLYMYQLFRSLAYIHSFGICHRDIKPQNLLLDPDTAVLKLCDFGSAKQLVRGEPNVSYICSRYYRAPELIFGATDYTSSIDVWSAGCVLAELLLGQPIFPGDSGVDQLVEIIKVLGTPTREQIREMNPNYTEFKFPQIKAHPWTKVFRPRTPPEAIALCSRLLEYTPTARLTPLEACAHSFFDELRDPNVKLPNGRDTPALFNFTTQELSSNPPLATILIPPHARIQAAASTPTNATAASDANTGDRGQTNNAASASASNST

Regarding `Fc1ccc2nc(N3CCCCCC3)nc(Nc3cc(C4CC4)[nH]n3)c2c1`, the results for the Ki in assay [1] and in assay [2] were above 33000 nM and 81 nM, respectively.

As for `OCc1cccc(-c2nc(Nc3cc(C4CC4)[nH]n3)c3cc(Cl)ccc3n2)c1`, the Ki in assay [1] was found to be 2300 nM; in assay [2] it was 23 nM.

Regarding `NC(=O)c1ccc(-c2nc(Nc3cc(C4CC4)[nH]n3)c3cc(Cl)ccc3n2)cc1`, the values for the Ki in assay [1] and in assay [2] were above 4000 nM and 29 nM, respectively.

Take `Cc1cnc(-c2ccc(S(N)(=O)=O)s2)nc1Nc1cc(C2CC2)n(C)n1`: the Ki in assay [1] and in assay [2] was above 4000 nM in each case. For the same molecule, the MIC90 in assay [3] is above 100 µM.

For `CC(C)N1CCN(c2nc(Nc3cc(C4CC4)[nH]n3)c3cc(Cl)ccc3n2)CC1`, the Ki in assay [2] came out at 1400 nM.

Take `N#Cc1ccc(-c2nc(Nc3cc(C4CC4)[nH]n3)c3ccccc3n2)cc1`: the Ki worked out at 46 nM in assay [2], 70 nM in assay [4], 140 nM at CDK2/Cyclin A2 and 18 nM in assay [5].

Turning to `Clc1ccc2nc(N3CCCCCC3)nc(Nc3cc(C4CC4)[nH]n3)c2c1`, the Ki in assay [1] is above 33000 nM; in assay [2], 150 nM. For the same molecule, the MIC90 in assay [3] came out at 33 µM (≈ 12.6 µg/mL).

For `CC(=O)N1CCCN(c2nc(Nc3cc(C4CC4)[nH]n3)c3cc(Cl)ccc3n2)CC1`, in assay [2], the Ki is 150 nM.

In the case of `NS(=O)(=O)c1ccc(-c2nc(Nc3cc(C4CC4)[nH]n3)c3cc(Cl)ccc3n2)s1`, the Ki was below 8 nM in assay [1] and below 1 nM in assay [2].

Consider `Clc1ccc2nc(N3CCCNCC3)nc(Nc3cc(C4CC4)[nH]n3)c2c1`, for which, in assay [2], the Ki amounted to 960 nM.

Consider `NS(=O)(=O)c1ccc(-c2ncc(Cl)c(Nc3cc(C4CC4)[nH]n3)n2)cc1`, for which the Ki in assay [1] worked out at 2900 nM; in assay [2] it was 13 nM. In assay [3], this molecule displayed an MIC90 above 100 µM.

`NC(=O)c1cccc(-c2nc(Nc3cc(C4CC4)[nH]n3)c3cc(Cl)ccc3n2)c1`: the Ki was above 4000 nM in assay [1] and 15 nM in assay [2].

On to `NS(=O)(=O)c1ccc(-c2ncc(F)c(Nc3cc(C4CC4)[nH]n3)n2)s1`, for which the Ki was 12 nM in assay [1] and below 1 nM in assay [2]. The molecule further returned an MIC90 in assay [3] of 3.1 µM (≈ 1.18 µg/mL).

Turning to `O=C1CCN(c2nc(Nc3cc(C4CC4)[nH]n3)c3cc(Cl)ccc3n2)CCN1`, the Ki in assay [2] stood at 190 nM.

Take `NS(=O)(=O)c1cccc(-c2nc(Nc3cc(C4CC4)[nH]n3)c3cc(Cl)ccc3n2)c1`: the Ki in assay [1] is below 8 nM; in assay [2] it was 6 nM.

For the molecule `Cc1ccc2nc(N3CCCCCC3)nc(Nc3cc(C4CC4)[nH]n3)c2c1`, the values for the Ki in assay [1] and in assay [2] were above 33000 nM and 98 nM, respectively.

In the case of `N#CCc1ccc(-c2nc(Nc3cc(C4CC4)[nH]n3)c3cc(Cl)ccc3n2)cc1`, the Ki is above 4000 nM in assay [1] and 5 nM in assay [2].

As to `NS(=O)(=O)c1cccc(-c2ncc(Cl)c(Nc3cc(C4CC4)[nH]n3)n2)c1`, the Ki in assay [1] was below 8 nM; in assay [2] it was 17 nM. The molecule further registered an MIC90 in assay [3] of 8.3 µM (≈ 3.24 µg/mL).

For `N#Cc1cccc(-c2nc(Nc3cc(C4CC4)[nH]n3)c3cc(Cl)ccc3n2)c1`, the Ki in assay [1] is above 4000 nM; in assay [2] it was 50 nM; in assay [4] it was above 4000 nM; at CDK2/Cyclin A2, 750 nM; in assay [5] it was 200 nM.

Take `N#Cc1cccc(-c2nc(Nc3cc(C4CC4)[nH]n3)c3ccccc3n2)c1`: the Ki in assay [2] is 40 nM; in assay [4] it was 9 nM; at CDK2/Cyclin A2, 11 nM; in assay [5], 22 nM.

As for `COc1ccc2nc(N3CCCCCC3)nc(Nc3cc(C4CC4)[nH]n3)c2c1`, the inhibition constant Ki in assay [1] was above 33000 nM; in assay [2], 82 nM.

Regarding `NS(=O)(=O)c1ccc(-c2nccc(Nc3cc(C4CC4)[nH]n3)n2)s1`, the figures for the Ki (in assay [1]; in assay [2]; on CDK2/Cyclin A2) were 18 nM, 4 nM and 7 nM, respectively. In assay [3], this molecule displayed an MIC90 of 4.2 µM (≈ 1.52 µg/mL). For the same molecule, in assay [6], the Ratio Ki was 2.

For `Clc1ccc2nc(N3CCCOCC3)nc(Nc3cc(C4CC4)[nH]n3)c2c1`, in assay [2], the Ki came out at 150 nM.

As to `Clc1ccc2nc(-c3ccccc3)nc(Nc3cc(C4CC4)[nH]n3)c2c1`, the inhibition constant (Ki) in assay [1] was above 4000 nM; in assay [2] it was 60 to 69 nM.

Regarding `Clc1ccc2nc(NC3CCC3)nc(Nc3cc(C4CC4)[nH]n3)c2c1`, the Ki in assay [2] turned out to be 72 nM.

Regarding `N#Cc1ccc(-c2nc(Nc3cc(C4CC4)[nH]n3)c3cc(Cl)ccc3n2)cc1`, the Ki in assay [1] was above 4000 nM; in assay [2], 88 nM; in assay [4] it was 190 nM; at CDK2/Cyclin A2, 170 nM; in assay [5], 710 nM.

Take `O=C(c1ccccc1)N1CCN(c2nc(Nc3cc(C4CC4)[nH]n3)c3cc(Cl)ccc3n2)CC1`: the Ki in assay [2] stood at 310 nM.

As for `CN1CCN(c2nc(Nc3cc(C4CC4)[nH]n3)c3cc(Cl)ccc3n2)CCC1=O`, in assay [2], the Ki came out at 310 nM.

As to `Clc1ccc2nc(N3CCNCC3)nc(Nc3cc(C4CC4)[nH]n3)c2c1`, in assay [2], the Ki worked out at 990 nM.

For the molecule `Cc1cnc(-c2ccc(S(N)(=O)=O)s2)nc1Nc1cc(C2CC2)[nH]n1`, the Ki in assay [1] turned out to be 18 nM; in assay [2] it was 4 nM. Besides, in assay [3], the MIC90 amounted to 4.7 µM (≈ 1.77 µg/mL).

For the molecule `COC(=O)N1CCCN(c2nc(Nc3cc(C4CC4)[nH]n3)c3cc(Cl)ccc3n2)CC1`, in assay [2], the Ki came to 230 nM.

For `NC(=O)Cc1ccc(-c2nc(Nc3cc(C4CC4)[nH]n3)c3cc(Cl)ccc3n2)cc1`, the Ki was found to be 1800 nM in assay [1] and 23 nM in assay [2].

Take `NS(=O)(=O)c1ccc(-c2ncc(Cl)c(Nc3cc(C4CC4)[nH]n3)n2)s1`: the Ki in assay [1] was 9 nM; in assay [2] it was below 1.3 nM; at CDK2/Cyclin A2, 17 nM. In addition, the MIC90 in assay [3] was found to be 6.25 µM (≈ 2.48 µg/mL). The Ratio Ki in assay [6] was above 13.

With `N#CCc1cccc(-c2nc(Nc3cc(C4CC4)[nH]n3)c3cc(Cl)ccc3n2)c1`, in assay [2], the Ki was found to be 38 nM.

Take `NS(=O)(=O)c1ccc(-c2nc(Nc3cc(C4CC4)[nH]n3)c3cc(Cl)ccc3n2)cc1`: the values for the Ki in assay [1] and in assay [2] were 22 nM and 24 nM, respectively.
